Measured values reported in publication PMC8436250 (Nature structural & molecular biology, 2019).

What was measured:
ATP-citrate lyase (ACLY) [1] = target: T1, ATP-citrate lyase (ACLY) (Homo sapiens, UniProt P53396); assay: cryo-EM structure; format: binding
T1 sequence (P53396 1-1101): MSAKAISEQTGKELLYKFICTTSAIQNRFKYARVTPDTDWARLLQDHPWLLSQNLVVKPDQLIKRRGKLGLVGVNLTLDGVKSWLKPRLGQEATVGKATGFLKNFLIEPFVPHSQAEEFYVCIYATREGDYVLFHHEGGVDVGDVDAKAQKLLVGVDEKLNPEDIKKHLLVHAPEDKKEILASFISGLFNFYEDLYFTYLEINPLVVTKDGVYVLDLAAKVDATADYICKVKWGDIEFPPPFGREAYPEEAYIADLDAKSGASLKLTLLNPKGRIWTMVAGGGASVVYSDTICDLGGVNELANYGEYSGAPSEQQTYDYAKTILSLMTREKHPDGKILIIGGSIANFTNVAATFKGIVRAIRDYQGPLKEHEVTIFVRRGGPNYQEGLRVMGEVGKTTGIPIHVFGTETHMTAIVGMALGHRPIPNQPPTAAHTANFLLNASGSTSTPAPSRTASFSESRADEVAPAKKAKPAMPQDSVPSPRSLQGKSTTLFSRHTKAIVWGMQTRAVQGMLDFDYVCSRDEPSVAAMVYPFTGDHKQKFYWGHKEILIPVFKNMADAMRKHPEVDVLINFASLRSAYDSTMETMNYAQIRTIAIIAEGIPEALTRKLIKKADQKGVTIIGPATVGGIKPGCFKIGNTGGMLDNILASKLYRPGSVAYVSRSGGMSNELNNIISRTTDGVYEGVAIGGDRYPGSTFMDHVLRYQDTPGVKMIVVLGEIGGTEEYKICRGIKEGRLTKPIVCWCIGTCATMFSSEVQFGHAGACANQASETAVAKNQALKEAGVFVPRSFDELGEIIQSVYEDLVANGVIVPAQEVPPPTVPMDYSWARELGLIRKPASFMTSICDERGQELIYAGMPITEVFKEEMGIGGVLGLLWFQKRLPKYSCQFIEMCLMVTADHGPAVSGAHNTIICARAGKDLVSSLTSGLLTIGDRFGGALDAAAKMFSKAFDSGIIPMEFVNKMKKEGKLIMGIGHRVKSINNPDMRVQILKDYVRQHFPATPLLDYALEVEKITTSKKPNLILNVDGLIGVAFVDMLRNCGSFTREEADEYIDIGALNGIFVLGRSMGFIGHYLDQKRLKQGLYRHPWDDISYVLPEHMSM

ATP-citrate lyase (ACLY) [2] = target: T1, ATP-citrate lyase (ACLY); assay: steady-state intrinsic fluorescence titration, one-site fit; format: binding
ATP-citrate lyase (ACLY) [3] = target: T1, ATP-citrate lyase (ACLY); assay: cryo-EM structure; format: binding; remark: listed apart in the source
ATP-citrate lyase (ACLY) [4] = target: T2, ATP-citrate lyase (ACLY) (Homo sapiens, UniProt P53396, E599Q); assay: cryo-EM structure; format: binding
T2 sequence (P53396 1-1101 E599Q): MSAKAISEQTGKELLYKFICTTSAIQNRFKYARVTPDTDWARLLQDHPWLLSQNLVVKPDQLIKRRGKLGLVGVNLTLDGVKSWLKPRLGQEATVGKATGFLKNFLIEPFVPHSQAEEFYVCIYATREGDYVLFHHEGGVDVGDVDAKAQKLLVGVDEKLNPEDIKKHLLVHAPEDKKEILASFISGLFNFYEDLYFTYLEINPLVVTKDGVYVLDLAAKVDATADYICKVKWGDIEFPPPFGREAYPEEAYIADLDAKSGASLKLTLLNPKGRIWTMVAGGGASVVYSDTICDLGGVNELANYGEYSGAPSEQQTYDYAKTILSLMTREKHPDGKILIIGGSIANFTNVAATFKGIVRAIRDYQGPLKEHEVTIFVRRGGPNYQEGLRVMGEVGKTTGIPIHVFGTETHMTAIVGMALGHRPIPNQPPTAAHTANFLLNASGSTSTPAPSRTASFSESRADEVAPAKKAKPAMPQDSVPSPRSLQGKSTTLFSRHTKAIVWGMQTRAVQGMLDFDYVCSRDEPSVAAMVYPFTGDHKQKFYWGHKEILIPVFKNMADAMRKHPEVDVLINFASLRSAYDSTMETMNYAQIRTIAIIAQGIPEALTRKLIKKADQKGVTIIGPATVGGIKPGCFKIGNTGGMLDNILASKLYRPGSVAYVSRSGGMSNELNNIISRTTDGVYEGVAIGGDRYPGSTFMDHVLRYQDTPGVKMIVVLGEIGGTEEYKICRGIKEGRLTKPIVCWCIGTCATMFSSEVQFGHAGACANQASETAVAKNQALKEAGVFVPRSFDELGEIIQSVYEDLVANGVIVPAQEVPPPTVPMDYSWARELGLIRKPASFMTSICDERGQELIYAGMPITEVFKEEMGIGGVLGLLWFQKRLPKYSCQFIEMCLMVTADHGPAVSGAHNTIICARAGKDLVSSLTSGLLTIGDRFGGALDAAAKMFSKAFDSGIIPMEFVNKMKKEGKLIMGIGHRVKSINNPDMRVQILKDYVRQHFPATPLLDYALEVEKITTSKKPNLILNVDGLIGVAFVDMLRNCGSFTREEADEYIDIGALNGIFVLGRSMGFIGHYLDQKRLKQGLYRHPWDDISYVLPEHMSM

ATP-citrate lyase (ACLY) [5] = target: T1, ATP-citrate lyase (ACLY); assay: cryo-EM structure; format: binding; remark: listed apart in the source
[6] = target: T3, ATP-citrate lyase (ACLY), full length human, wild type (human), P53396; assay: cryo-EM structure; settings: remark: other sources report otherwise
T3 chain: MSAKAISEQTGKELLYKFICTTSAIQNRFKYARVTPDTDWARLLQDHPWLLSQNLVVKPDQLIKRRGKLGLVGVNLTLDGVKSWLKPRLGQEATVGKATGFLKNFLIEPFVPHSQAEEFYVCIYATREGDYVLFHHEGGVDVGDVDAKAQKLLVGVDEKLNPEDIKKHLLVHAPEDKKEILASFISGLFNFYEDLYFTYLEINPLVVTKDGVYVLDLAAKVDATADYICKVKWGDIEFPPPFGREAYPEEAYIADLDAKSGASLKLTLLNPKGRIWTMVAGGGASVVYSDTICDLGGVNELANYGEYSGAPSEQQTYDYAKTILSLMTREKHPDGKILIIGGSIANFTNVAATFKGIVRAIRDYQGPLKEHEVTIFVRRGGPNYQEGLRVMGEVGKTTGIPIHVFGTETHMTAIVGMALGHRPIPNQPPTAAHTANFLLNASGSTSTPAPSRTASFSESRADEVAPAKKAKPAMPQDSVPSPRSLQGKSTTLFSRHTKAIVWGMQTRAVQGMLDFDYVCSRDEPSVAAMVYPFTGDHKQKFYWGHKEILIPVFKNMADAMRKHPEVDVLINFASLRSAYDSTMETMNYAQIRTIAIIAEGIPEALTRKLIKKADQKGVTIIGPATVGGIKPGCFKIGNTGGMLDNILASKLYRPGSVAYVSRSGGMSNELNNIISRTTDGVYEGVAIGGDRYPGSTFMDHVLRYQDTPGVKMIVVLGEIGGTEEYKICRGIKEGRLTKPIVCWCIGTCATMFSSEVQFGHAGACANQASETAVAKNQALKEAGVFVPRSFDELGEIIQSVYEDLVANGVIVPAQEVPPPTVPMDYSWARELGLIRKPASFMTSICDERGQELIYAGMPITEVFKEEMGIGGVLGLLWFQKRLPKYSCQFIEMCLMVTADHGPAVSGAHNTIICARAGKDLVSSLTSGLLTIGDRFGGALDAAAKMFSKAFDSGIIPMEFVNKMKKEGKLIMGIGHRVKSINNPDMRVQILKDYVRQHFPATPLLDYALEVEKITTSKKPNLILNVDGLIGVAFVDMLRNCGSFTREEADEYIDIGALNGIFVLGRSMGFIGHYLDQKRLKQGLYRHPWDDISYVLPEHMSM

cryo-EM structure = target: the molecule itself; assay: cryo-EM structure

For `CC(=O)SCCNC(=O)CCNC(=O)[C@H](O)C(C)(C)COP(=O)(O)OP(=O)(O)OC[C@H]1O[C@@H](n2cnc3c(N)ncnc32)[C@H](O)[C@@H]1OP(=O)(O)O` [acetyl-CoA], the “cryo-EM structure (3.1 Å, D2) with OAA; DSF stabilization” value (ATP-citrate lyase (ACLY) [1]) was “acetyl-CoA occupied the same binding site as CoA and was also stabilized by the same basic residues, R576 and K964”.

Molecule `O=C(O)CC(O)(CC(=O)O)C(=O)O` [citrate] has a Kd (ATP-citrate lyase (ACLY) [2]) of 3.4 ± 0.5 µM.

For `CC(C)(COP(=O)(O)OP(=O)(O)OC[C@H]1O[C@@H](n2cnc3c(N)ncnc32)[C@H](O)[C@@H]1OP(=O)(O)O)[C@@H](O)C(=O)NCCC(=O)NCCS` [CoA, Coenzyme A], the “cryo-EM structure (3.0 Å, D2)” value (ATP-citrate lyase (ACLY) [3]) was “CoA binds at the interface between the CSH and ASH domains of separate subunits”.

With `Nc1ncnc2c1ncn2[C@@H]1O[C@H](COP(=O)(O)OP(=O)(O)O)[C@@H](O)[C@H]1O` [ADP] the “cryo-EM structure (2.85 Å) of mutant mixed with ATP, citrate and CoA” value (ATP-citrate lyase (ACLY) [4]) was “ACLY-E599Q–ATP–citrate–CoA structure highlighting the bound ADP (hydrolyzed ATP) and phospho-citryl-CoA intermediate”.

For `O=C(O)CC(=O)C(=O)O` [OAA, oxaloacetate], the Kd (ATP-citrate lyase (ACLY) [5]) was 15 ± 4 µM.

B1: ATP-citrate lyase (ACLY), full length human, wild type, P53396 1-1101 (enzyme)
chain: MSAKAISEQTGKELLYKFICTTSAIQNRFKYARVTPDTDWARLLQDHPWLLSQNLVVKPDQLIKRRGKLGLVGVNLTLDGVKSWLKPRLGQEATVGKATGFLKNFLIEPFVPHSQAEEFYVCIYATREGDYVLFHHEGGVDVGDVDAKAQKLLVGVDEKLNPEDIKKHLLVHAPEDKKEILASFISGLFNFYEDLYFTYLEINPLVVTKDGVYVLDLAAKVDATADYICKVKWGDIEFPPPFGREAYPEEAYIADLDAKSGASLKLTLLNPKGRIWTMVAGGGASVVYSDTICDLGGVNELANYGEYSGAPSEQQTYDYAKTILSLMTREKHPDGKILIIGGSIANFTNVAATFKGIVRAIRDYQGPLKEHEVTIFVRRGGPNYQEGLRVMGEVGKTTGIPIHVFGTETHMTAIVGMALGHRPIPNQPPTAAHTANFLLNASGSTSTPAPSRTASFSESRADEVAPAKKAKPAMPQDSVPSPRSLQGKSTTLFSRHTKAIVWGMQTRAVQGMLDFDYVCSRDEPSVAAMVYPFTGDHKQKFYWGHKEILIPVFKNMADAMRKHPEVDVLINFASLRSAYDSTMETMNYAQIRTIAIIAEGIPEALTRKLIKKADQKGVTIIGPATVGGIKPGCFKIGNTGGMLDNILASKLYRPGSVAYVSRSGGMSNELNNIISRTTDGVYEGVAIGGDRYPGSTFMDHVLRYQDTPGVKMIVVLGEIGGTEEYKICRGIKEGRLTKPIVCWCIGTCATMFSSEVQFGHAGACANQASETAVAKNQALKEAGVFVPRSFDELGEIIQSVYEDLVANGVIVPAQEVPPPTVPMDYSWARELGLIRKPASFMTSICDERGQELIYAGMPITEVFKEEMGIGGVLGLLWFQKRLPKYSCQFIEMCLMVTADHGPAVSGAHNTIICARAGKDLVSSLTSGLLTIGDRFGGALDAAAKMFSKAFDSGIIPMEFVNKMKKEGKLIMGIGHRVKSINNPDMRVQILKDYVRQHFPATPLLDYALEVEKITTSKKPNLILNVDGLIGVAFVDMLRNCGSFTREEADEYIDIGALNGIFVLGRSMGFIGHYLDQKRLKQGLYRHPWDDISYVLPEHMSM
With B1 the stoichiometry N [6] was 4.

B2: ATP-citrate lyase (ACLY) E599Q catalytic mutant, full length human (enzyme, UniProt P53396 1-1101, looked up)
chain: MSAKAISEQTGKELLYKFICTTSAIQNRFKYARVTPDTDWARLLQDHPWLLSQNLVVKPDQLIKRRGKLGLVGVNLTLDGVKSWLKPRLGQEATVGKATGFLKNFLIEPFVPHSQAEEFYVCIYATREGDYVLFHHEGGVDVGDVDAKAQKLLVGVDEKLNPEDIKKHLLVHAPEDKKEILASFISGLFNFYEDLYFTYLEINPLVVTKDGVYVLDLAAKVDATADYICKVKWGDIEFPPPFGREAYPEEAYIADLDAKSGASLKLTLLNPKGRIWTMVAGGGASVVYSDTICDLGGVNELANYGEYSGAPSEQQTYDYAKTILSLMTREKHPDGKILIIGGSIANFTNVAATFKGIVRAIRDYQGPLKEHEVTIFVRRGGPNYQEGLRVMGEVGKTTGIPIHVFGTETHMTAIVGMALGHRPIPNQPPTAAHTANFLLNASGSTSTPAPSRTASFSESRADEVAPAKKAKPAMPQDSVPSPRSLQGKSTTLFSRHTKAIVWGMQTRAVQGMLDFDYVCSRDEPSVAAMVYPFTGDHKQKFYWGHKEILIPVFKNMADAMRKHPEVDVLINFASLRSAYDSTMETMNYAQIRTIAIIAQGIPEALTRKLIKKADQKGVTIIGPATVGGIKPGCFKIGNTGGMLDNILASKLYRPGSVAYVSRSGGMSNELNNIISRTTDGVYEGVAIGGDRYPGSTFMDHVLRYQDTPGVKMIVVLGEIGGTEEYKICRGIKEGRLTKPIVCWCIGTCATMFSSEVQFGHAGACANQASETAVAKNQALKEAGVFVPRSFDELGEIIQSVYEDLVANGVIVPAQEVPPPTVPMDYSWARELGLIRKPASFMTSICDERGQELIYAGMPITEVFKEEMGIGGVLGLLWFQKRLPKYSCQFIEMCLMVTADHGPAVSGAHNTIICARAGKDLVSSLTSGLLTIGDRFGGALDAAAKMFSKAFDSGIIPMEFVNKMKKEGKLIMGIGHRVKSINNPDMRVQILKDYVRQHFPATPLLDYALEVEKITTSKKPNLILNVDGLIGVAFVDMLRNCGSFTREEADEYIDIGALNGIFVLGRSMGFIGHYLDQKRLKQGLYRHPWDDISYVLPEHMSM
B2: binds (cryo-EM structure).
